Patent US20080114047A1 (priority 2003, published 2008)
“And” between values parts separate entries of the source, which are not always exact repeats. Equal entries are not always repeated. Structures can show the parent of a compound that is named as a salt. Where two headings read alike, the source gives them in different places.

Assays:
[1] = tested on: L. donovani axenic amastigotes; assay: In vitro anti-leishmania activity (IC50 vs. L. donovani axenic amastigotes); type: cell-based; details: for IC50: Leishmania donovani
[2] = tested on: Trypanosoma brucei rhodesiense; assay: Anti-protozoan data: T.b.r. IC50; type: cell-based; details: read-out: T.b.r. IC50
Trypanosoma cruzi = assay: Anti-protozoan data: T. cruzi IC50; type: cell-based; details: read-out: T. cruzi IC50
Plasmodium falciparum = assay: Anti-protozoan data: P. falcip. IC50; type: cell-based; details: read-out: P. falcip. IC50
DNA = DNA binding ΔTm; details: Tables VI(a), VI(c)
[3] = tested on: Mycobacterium tuberculosis; assay: Compounds tested against Mycobacterium tuberculosis (MIC90); type: cell-based; details: read-out: M. tb. MIC90
Candida albicans = assay: Anti-fungal data: Candida albicans; type: cell-based; details: for MFC / MIC80: strain A39; for MIC: strain A39, read-out: Candida albicans (A39) MIC100
Aspergillus fumigatus = assay: Anti-fungal data: Aspergillus fumigatus; type: cell-based; details: for MIC: strain DUMC 168.95, read-out: Aspergillus. Fumigatus (DUMC 168.95) MIC100
Cryptococcus neoformans = assay: Anti-fungal data: Cryptococcus neoformans; type: cell-based; details: for MFC / MIC80: strain H99; for MIC: strain H99, read-out: Cryptococcus neoformans (H99) MIC100
J774 macrophages = assay: Toxicity against J774 macrophages (IC50); type: cell-based; details: Mus musculus, Tables I-III, V
[4] = Tables VI(a), VI(c), read-out: Leishmania donovani IC50
[5] = axenic amastigotes, Tables I-V, read-out: IC50 vs. L. donovani

SMILES	IC50 [1, 4] [µM]	IC50 ([2]; Tables VI(a), VI(c)) [µM]	IC50 (Trypanosoma cruzi; Tables VI(a), VI(c)) [µM]	IC50 (Plasmodium falciparum; Tables VI(a), VI(c)) [µM]	MIC90 [3]	MFC (Candida albicans) [µg/mL]	MIC80 (Candida albicans) [µg/mL]	MIC (Candida albicans) [µg/mL]	MIC80 (Aspergillus fumigatus; strain DUMC 168.95) [µg/mL]	MIC (Aspergillus fumigatus) [µg/mL]	MFC (Cryptococcus neoformans) [µg/mL]	MIC80 (Cryptococcus neoformans) [µg/mL]	MIC (Cryptococcus neoformans) [µg/mL]	IC50 (in vitro) [µM]	IC50 [1, 5] [µM]	IC50 (J774 macrophages) [µM]	melting point	further results
CC(C)NC(=N)c1ccc2oc(CCCCc3cc4cc(C(=N)NC(C)C)ccc4o3)cc2c1 [Compound 21, dihydrochloride]	12.7 ± 2.27	0.0988	69.1	0.0098	0.07 µg/mL and 0.13 µM	> 100	10	10	> 100	> 100	> 100	100	100	> 163				DNA binding Δ Tm (DNA): 6.60
Cl.Cl.c1cc(OCCCOc2ccc(C3=NCCN3)cc2)cc(-c2cc3cc(C4=NCCN4)ccc3o2)c1 [Compound 34, 2-(2-(3-(3-(4-(4,5-Dihydro-1H-imidazol-2-yl)phenoxy)propoxy)phenyl)benzofuran-5-yl) -4,5-dihydro-1H-imidazole dihydrochloride]	5.93 ± 0.04	1.17		0.108										6.52	5.93 ± 0.04	7.1 ± 0.8	193 to 197 °C	
Cl.Cl.N=C(N)c1ccc(OCCCCOc2cccc(-c3cc4cc(C(=N)N)ccc4o3)c2)cc1 [Compound 35, 2-(3-(4-(4-Carbamimidoylphenoxy)butoxy)phenyl)benzofuran-5-carboxamidine dihydrochloride]	4.45 ± 1.93	0.779		0.0755										8.06	4.45 ± 1.93	9.6 ± 1.5	284 to 286 °C	
Cl.Cl.N=C(N)c1ccc(OCCCCCOc2cccc(-c3cc4cc(C(=N)N)ccc4o3)c2)cc1 [Compound 38, 2-(3-(5-(4-Carbamimidoylphenoxy)pentyloxy)phenyl)benzofuran-5-carboxamidine dihydrochloride]	10.5 ± 2.11	0.863	7.78	0.428	1.96 µg/mL and 3.48 µM	12.5	0.78	6.25	50	> 100	3.12	0.39	0.781	3.02			165 to 168 °C	DNA binding Δ Tm (DNA): 21.1
Cl.Cl.N=C(N)c1ccc(OCCCOc2ccc(-c3cc4cc(C(=N)N)ccc4o3)cc2)cc1 [Compound 44, 2-(4-(3-(4-Carbamimidoylphenoxy)propoxy)phenyl)benzofuran-5-carboxamidine dihydrochloride]					0.45 µg/mL and 0.86 µM	10	≤ 1	≤ 1	10	> 100				7.32	0.78 ± 0.21	2.7 ± 0.3	287 to 289 °C	IC50 [2]: 0.451 µM; IC50 (Trypanosoma cruzi): 16.9 µM; IC50 (Plasmodium falciparum): 0.0414 µM; DNA binding Δ Tm (DNA): 18.7
Cl.Cl.N=C(N)c1ccc(OCCCCCOc2ccc(-c3cc4cc(C(=N)N)ccc4o3)cc2)cc1 [Compound 50, 2-(4-(5-(4-Carbamimidoylphenoxy)pentyloxy)phenyl)benzofuran-5-carboxamidine dihydrochloride]		0.369	4.71	0.313	1.01 µg/mL and 1.84 µM	3.12	0.39	0.78	6.25	> 100	12.5	0.39	0.78	4.19			290 °C (dec.)	DNA binding Δ Tm (DNA): 12.7
Cl.Cl.N=C(N)c1ccc(OCCCCCCOc2ccc(-c3cc4cc(C(=N)N)ccc4o3)cc2)cc1 [Compound 53, 2-(4-(6-(4-Carbamimidoylphenoxy)hexyloxy)phenyl)benzofuran-5-carboxamidine dihydrochloride]	0.65 ± 0.17	0.368	6.21	0.263	3.74 µg/mL and 6.84 µM	3.12	1.56	3.12	12.5	> 100	6.25	1.56	3.12	3.29	0.65 ± 0.17	0.6 ± 0.07	310 to 311 °C	
Cl.Cl.N=C(N)c1ccc(OCCCCOc2cccc(-c3cc4ccc(C(=N)N)cc4o3)c2)cc1 [Compound 59, 2-(3-(4-(4-Carbamimidoylphenoxy)butoxy)phenyl)benzofuran-6-carboxamidine dihydrochloride]	5.93 ± 0.24	1.33		0.321										7.57	5.93 ± 0.24	11 ± 2	278 to 280 °C	
Cl.Cl.N=C(N)c1ccc(OCCCCCOc2cccc(-c3cc4ccc(C(=N)N)cc4o3)c2)cc1 [Compound 62, 2-(3-(5-(4-Carbamimidoylphenoxy)pentyloxy)phenyl)benzofuran-6-carboxamidine dihydrochloride]	5.75 ± 0.06	0.531	8.56	0.282	0.65 µg/mL and 1.15 µM	1.56	0.39	0.39	1.56	3.12	0.78	0.39	0.39	4.12	5.75 ± 0.06	5.6 ± 0.3	178 to 182 °C	MFC (Aspergillus fumigatus; strain DUMC 168.95): > 100 µg/mL
CC(C)NC(=N)c1ccc(OCCCOc2ccc(-c3cc4ccc(C(=N)NC(C)C)cc4o3)cc2)cc1.Cl.Cl [Compound 69, 2-(4-(3-(4-(N-Isopropylcarbamimidoyl)phenoxy)propoxy)phenyl)-N-isopropylbenzofuran-6-carboxamidine dihydrochloride]	3.18 ± 0.19	0.0881	28.4	0.0366	0.54 µg/mL and 0.92 µM									49.9	3.18 ± 0.19	9.9 ± 1.7	266 to 270 °C	
Cl.Cl.c1cc(C2=NCCN2)ccc1OCCCOc1ccc(-c2cc3ccc(C4=NCCN4)cc3o2)cc1 [Compound 70, 2-(2-(4-(3-(4-(4,5-Dihydro-1H-imidazol-2-yl)phenoxy)propoxy)phenyl)benzofuran-6-yl)-4,5-dihydro-1H-imidazole dihydrochloride]	0.48 ± 0.16	0.144	7.11	0.0418	0.86 µg/mL and 1.5 µM									16.8	0.48 ± 0.16	2.4 ± 0.1	283 to 284 °C	selectivity for axenic amastigotes over J774 macrophages (fold more active against the parasites compared to the mammalian host cells) ([1]; L. donovani vs. J774 macrophages): 5 fold
Cl.Cl.N=C(N)c1ccc(OCCCCOc2ccc(-c3cc4ccc(C(=N)N)cc4o3)cc2)cc1 [Compound 71, 2-(4-(4-(4-Carbamimidoylphenoxy)butoxy)phenyl)benzofuran-6-carboxamidine dihydrochloride]	3.22 ± 0.96	1.06	12.5	0.166	0.45 µg/mL and 0.85 µM									14.1	3.22 ± 0.96	0.86 ± 0.2	324 to 325 °C	
CC(C)NC(=N)c1ccc(OCCCCCOc2ccc(-c3cc4ccc(C(=N)NC(C)C)cc4o3)cc2)cc1.Cl.Cl [Compound 75, 2-(4-(5-(4-(N-Isopropylcarbamimidoyl)phenoxy)pentyloxy)phenyl)-N-isopropylbenzofuran-6-carboxamidine dihydrochloride]	1.38 ± 0.18	0.557	8.92	0.0744	1.19 µg/mL and 1.92 µM									10.7	1.38 ± 0.18	2.7 ± 0.1	255 to 257 °C	
CC(C)NC(=N)c1ccc(OCCCCCCOc2ccc(-c3cc4ccc(C(=N)NC(C)C)cc4o3)cc2)cc1.Cl.Cl [Compound 78, 2-(4-(6-(4-(N-Isopropylcarbamimidoyl)phenoxy)hexyloxy)phenyl)-N-isopropylbenzofuran-6-carboxamidine dihydrochloride]	2.62 ± 0.35	0.884	3.48	0.0519	2.11 µg/mL and 3.33 µM									4.9	2.62 ± 0.35	0.73 ± 0.03	264 to 268 °C	
N=C(N)c1ccc(OCCCCCOc2ccc(C(=N)N)cc2)cc1 [Pentamidine, pentamidine, reference compound]															2 ± 0.6	23 ± 6		
